Patent US20230355586A1, “Application of Valdecoxib in preparation of medications for preventing and treating glaucoma” (Central South University, priority 2022, published 2023)
“Also recorded” adds a separate entry of the source.

What was measured:
[1] = tested on: PERK-ATF4-CHOP pathway; assay: Western blot of ER stress, PERK-ATF4-CHOP pathway and apoptosis proteins in R28 OGD/R model; type: cell-based, rat; settings: R28 cells
[2] = tested on: R28 cells; assay: Cell death of R28 cells pretreated with CCT020312; type: cell-based, rat; settings: R28 cells pretreated with different concentrations of CCT020312
[3] = tested on: R28 cells; assay: CCK-8 cell viability in R28 OGD/R model; type: cell-based, rat; settings: 2 h post-OGD/R, vs. OGD/R group
Method: (§1) Through animal ethics, cell culture, animal selection, reagent and antibody information, anterior chamber compression rat model is established, […] cell OGD/R (oxygen-glucose deprivation/reoxygenation) model is established; HE (hematoxylin-eosin) staining, apoptosis by TUNEL (TdT-mediated dUTP Nick-End Labeling) detection, cell viability by CCK8 (Cell Counting Kit-8), Western blot assay, Annexin V-FITC/PI flow cytometry, PI/Hoechest staining and immunofluorescence assay are performed. The cell death rate at multiple time points with the OGD/R model is detected using PI staining. PI-positive cells are identified as dead cells. The proportion of PI-positive cells at multiple time points are calculated. […] To identify whether the valdecoxib's effect involved an anti-apoptosis mechanism, FCM (flow cytometry) is performed, and a further analysis indicates both that OGD/R induced cell apoptosis and the valdecoxib decreases the cell apoptosis rate, as shown in FIGS. 1E-1H.

[4] = tested on: R28 cells; assay: Annexin V-FITC/PI flow cytometry apoptosis in R28 OGD/R model; type: cell-based, rat; settings: vs. OGD/R group
Method: as §1

[5] = tested on: retina / RGCs (retinal ganglion cells); assay: HE staining of retina in acute high intraocular pressure (aHIOP) retinal I/R model; type: in vivo, SD (Sprague-Dawley) rats; settings: rat I/R model, 3 days post-injury, intravitreal injection
Method: (§2) Through animal ethics, cell culture, animal selection, reagent and antibody information, anterior chamber compression rat model is established, R28 cell OGD/R (oxygen-glucose deprivation/reoxygenation) model is established; HE (hematoxylin-eosin) staining, apoptosis by TUNEL (TdT-mediated dUTP Nick-End Labeling) detection, cell viability by CCK8 (Cell Counting Kit-8), Western blot assay, Annexin V-FITC/PI flow cytometry, PI/Hoechest staining and immunofluorescence assay are performed.
(§3) In order to evaluate the potential therapeutic prospect of VAL for saving RGCs (retinal ganglion cells) in glaucoma retinal injury, the glaucoma retinal IR is simulated by performing an aHIOP (acute high intraocular pressure) model on SD (Sprague-Dawley) rats. The rats are sacrificed and their eyeballs are removed at 1, 3 or 7 days post-IRI. HE staining is performed to detect the morphological changes in the retina. It is discovered that, compared to the control group, the retinas from 3 and 7 days post-IRI are markedly thinner. Additionally, lost RCGs or their disordered arrangement is observed at 3 and 7 days after IRI when compared with the control retina, as shown in FIGS. 2A and 2B. Next, the valdecoxib's effect on the RGCs in the FR model by HE staining and immunofluorescence. […] A TUNEL assay is performed to clarify whether valdecoxib's protective effect involves the anti-apoptosis mechanism. […]

[6] = tested on: RGCs (retinal ganglion cells); assay: TUNEL/RBPMS apoptosis assay of retina in aHIOP retinal I/R model; type: in vivo, SD (Sprague-Dawley) rats; settings: rat I/R model, compared to the I/R group
Method: as §2, §3

[7] = tested on: PERK-ATF4-CHOP pathway; assay: Western blot of retina lysates in retinal I/R model; type: in vivo, rats; settings: rat retina
Method: as §2, with “R28” left out, “performed. […] The expression levels of the apoptosis-related proteins are examined in the control, I/R, I/R+DMSO and I/R+valdecoxib groups. […] The expression levels of p-PERK, cleaved caspase 3 and GRP78 in RGCs are evaluated by immunofluorescence.” for “performed.”

[8] = I/R, pretreated with valdecoxib

CCN(CC)CCC(=O)N1N=C(c2c(-c3ccccc3)c3cc(Br)ccc3[nH]c2=O)CC1c1ccc(Br)cc1 (centres unmarked) [CCT020312]
bax expression level (Western blot) ([1]; CCT020312 pre-treated group): consistent with those of the PERK-ATF4-CHOP pathway proteins
cleaved caspase 3 expression level (Western blot) ([1]; CCT020312 pre-treated group): consistent with those of the PERK-ATF4-CHOP pathway proteins
expression of markers of ER stress and the PERK-ATF4-CHOP pathway (Western blot) ([1]; valdecoxib pretreatment prior to CCT020312, vs. OGD/R+VAL): reverses the valdecoxib's effects, increasing the expression
cell death [2]: no significant cell death

Cc1onc(-c2ccccc2)c1-c1ccc(S(N)(=O)=O)cc1 [valdecoxib]
cell survival rate (CCK-8) ([3]; 1 μmol/L): significantly elevates
cell survival rate (CCK-8) ([3]; 1 μmol/L, listed as VAL): significant increase
cell survival rate (CCK-8) ([3]; 5 μmol/L): significantly elevates
cell survival rate (CCK-8) ([3]; 5 μmol/L, listed as VAL): significant increase
cell apoptosis rate (flow cytometry) [4]: decreases
RGCs' survival rate [5]: significantly increases
retinal thickness (HE staining) [5]: significantly increases
TUNEL-positive RGCs [6]: reduced
ATF4 protein level (Western blot) ([1]; valdecoxib pretreatment): decrease the expression; also recorded: significantly reduces
CHOP protein level (Western blot) ([1]; valdecoxib pretreatment): decrease the expression; also recorded: significantly reduces
GRP78 protein level (Western blot) ([1]; valdecoxib pretreatment): decrease the expression; also recorded: significantly reduces
bax protein level (Western blot) ([1]; valdecoxib pretreatment): decreased; also recorded: significantly reduces
bcl-2 protein expression (Western blot) ([1]; valdecoxib pretreatment): opposite to that of the bax and cleaved caspase 3
cleaved caspase 3 protein level (Western blot) ([1]; valdecoxib pretreatment): decreased; also recorded: significantly reduces
p-PERK protein level (Western blot) ([1]; valdecoxib pretreatment): decrease the expression; also recorded: significantly reduces
bax expression (Western blot) ([7]; I/R injury): decreases the expression
bcl-2 expression (Western blot) ([7]; I/R injury): opposite of that of the bax and cleaved caspase 3
cleaved caspase 3 expression (Western blot) ([7]; I/R injury): decreases the expression
ATF4 expression level (Western blot) [7, 8]: reduced
CHOP expression level (Western blot) [7, 8]: reduced
GRP78 expression (Western blot) [7, 8]: consistent with the PERK-ATF4-CHOP pathway proteins
p-PERK expression level (Western blot) [7, 8]: reduced
